Assay results published in publication PMC12298270, “Development and Validation of a New LC-MS/MS Method for Simultaneous Quantification of Ivacaftor, Tezacaftor and Elexacaftor Plasma Levels in Pediatric Cystic Fibrosis Patients” (Pharmaceuticals, 2025).
Like-named read-outs stand apart in the source and are kept apart here.

Columns and labels:
[1] = Plasma levels of IVA, TEZ and ELX by LC-MS/MS in pediatric cystic fibrosis patients at steady state on Kaftrio; format: in vivo, human; conditions: for Cmax at 4 h / AUC(0-t): both sexes, human, plasma, oral; for Cmax at 4 h / Plasma concentration T0 (Ctrough), 25th Percentile / Plasma concentration T0 (Ctrough), 75th Percentile / Plasma concentration T0 (Ctrough), Median: steady state; for Cmax at 4 h: 4 h after morning Kaftrio dose; for Plasma concentration T0 (Ctrough), 25th Percentile / Plasma concentration T0 (Ctrough), 75th Percentile / Plasma concentration T0 (Ctrough), Median: before morning Kaftrio dose
Protocol: The clinical performance of our validated method was tested on n = 25 samples from pediatric patients affected by cystic fibrosis. Table 5 reports plasma concentrations of IVA, TEZ and ELX measured before (T0) and 4 h after (T4) the morning dose assumption of Kaftrio® (corresponding to IVA Tmax). For IVA, the plasma concentration at 12 h (T12) was obtained by using C4h*e^−β(t12−t4), and the AUC0–12h was calculated to assess the systemic exposure within the interval between two doses (Table 5). Thereafter, AUC0–12h values were multiplied by 2 in order to perform a regression analysis of T0 concentrations versus AUC0–24h.
The clinical applicability of our validated method was tested on n = 25 plasma samples from pediatric patients with a median (range) age of 9.5 (7–17) years and affected by cystic fibrosis (CF). These patients (n = 14 males and n = 11 females) were followed-up during the routine clinical practice at Pneumology and Cystic Fibrosis Unit of Bambino Gesù Children’s Hospital, and were concomitantly receiving therapies with pancreatic enzymes, bronchodilators, antibiotics (including carbapenems, macrolides, beta-lactams, lipopeptides, fluoroquinolones) and proton pump inhibitors.
In order to evaluate systemic exposure to each CFTR modulator, drug levels were measured at steady-state by collecting EDTA–whole blood samples before (T0, corresponding to the minimum plasma concentration, Ctrough,) and 4 h after the morning dose intake (T4, corresponding to the maximum concentration, Cmax). After centrifugation at 3500 rcf for 5 min, plasma was recovered from whole blood samples. Plasma samples were collected and stored at −80 °C until analysis.
According to the Kaftrio® summary of product characteristics (SmPC), patients received a morning dose consisting of two ivacaftor 75 mg/tezacaftor, 50 mg/elexacaftor, 100 mg tablets, whereas one ivacaftor 150 mg tablet was taken in the evening (every 12 h).
Elexacaftor/tezacaftor/ivacaftor plasma levels were determined using high-performance liquid chromatography (HPLC) coupled to mass spectrometry (MS/MS). EDTA–whole blood samples were collected before (T0) and 4 h after (T4) morning drug intake. Analysis of Kaftrio® plasma levels was performed at Division of Metabolic Diseases and Drug Biology of Bambino Gesù Children’s Hospital, IRCCS, in Rome (Italy). The liquid chromatography (LC) system consisted of an UHPLC Agilent 1290 Infinity II (Agilent Technologies, Deutschland GmbH, Waldbronn, Germany). Gradient chromatographic separation was performed in reverse phase mode with a Luna Omega 1.60 µm Polar C18 (100 × 2.1 mm) column (Phenomenex) maintained at 40 °C, with mobile phase A (0.1% formic acid (FA) in water) and mobile phase B (0.1% formic acid and 25% of 2-propanol in ACN). The flow rate of mobile phases was 0.4 mL/min. The duration of each chromatographic run was 10.50 min.
The volume injected was 1 μL. Detection of IVA, IVA-d9, TEZ, TEZ-d4, ELX and ELX-d3 was carried out using a 6470 Mass Spectrometry system (Agilent Technologies, Deutschland GmbH, Waldbronn, Germany) equipped with an ESI-JET-STREAM source operating in the positive ion (ESI+) mode. Mass spectrometric conditions were as follows: Gas Temperature 350 °C, Gas Flow 9 L/min, Sheath Gas Temperature 300 °C, Sheath Gas Flow 9 L/min, Capillary 4000 V, Nebulizer 35 psi.
A 10 µL measure of IS working solution with IVA-d9, TEZ-d4 and ELX-d3 was added to 50 µL of plasma or CAL or QC or blank sample in darkened tubes. After vortexing for 5 s, 300 µL of pure ACN were added to each sample. Samples were mixed for 60 s and centrifuged at 13,000 rpm for 9 min at room temperature. Thereafter, 200 µL of supernatant were collected in amber glass vials and injected into the UHPLC-MS/MS system.
Demographic data and PK parameters were analyzed using descriptive statistics. The median with interquartile range (IQR) was used to describe Ctrough levels. […]

[2] = Short- and long-term autosampler stability of prepared QC samples at room temperature; format: physicochemical; conditions: for Stability (%): autosampler; for 9-day autosampler stability: across L-, M- and H-QC levels
Protocol: Both short- and long-term stability were evaluated on prepared QC samples kept at room temperature for a maximum of 9 days. After 24 h from QC sample preparation and first assessment (Time 0), the stability was around 100% for all QC samples. […] Autosampler stability was tested by analyzing IVA, TEZ and ELX concentrations in QCs maintained at room temperature at time 0 (corresponding to preparation of QC samples and to the first measurement) and after 24 h (short-term stability) or 9 days (long-term stability). We also evaluated, on prepared low-, medium- and high-QC samples, the stability following one cycle of freezing (−80 °C) and thawing (after 12 days). To further assess long-term stability, n = 3 T0 and T4 of authentic samples, stored at −80 °C over a period of five months, were randomly chosen and re-analyzed. The percentage difference between the concentration measured at each sampling point and the initial concentration was calculated. Based on ICH guideline M10, a percentage difference below the 15% was considered acceptable.

[3] = Stability of prepared QC samples after one cycle of freezing (−80 °C) and thawing; format: physicochemical; conditions: low-, medium- and high-QC samples, thawed after 12 days
Protocol: (§1) We have also evaluated the stability of prepared low-, medium- and high-QC samples following one cycle of freezing (−80 °C) and thawing (after 12 days). The calculated stability for ivacaftor, tezacaftor and elexacaftor was 100–107% after 12 days. Patient samples (n = 3 T0 and T4) were randomly selected and re-analyzed after being stored at −80 °C over a period of five months. Compared to the first measurement (time 0), the stability ranged from 85.48 ± 19.83% (mean ± SD) for IVA T4 to 90.55 ± 2.42% for ELX T0 (Supplementary Table S2). Autosampler stability was tested by analyzing IVA, TEZ and ELX concentrations in QCs maintained at room temperature at time 0 (corresponding to preparation of QC samples and to the first measurement) and after 24 h (short-term stability) or 9 days (long-term stability). We also evaluated, on prepared low-, medium- and high-QC samples, the stability following one cycle of freezing (−80 °C) and thawing (after 12 days). To further assess long-term stability, n = 3 T0 and T4 of authentic samples, stored at −80 °C over a period of five months, were randomly chosen and re-analyzed. The percentage difference between the concentration measured at each sampling point and the initial concentration was calculated. Based on ICH guideline M10, a percentage difference below the 15% was considered acceptable.

[4] = Long-term −80 °C stability of authentic patient plasma samples; format: physicochemical, human; conditions: for Stability, % of the first measurement: n = 3 T0 and T4 patients' samples, −80 °C, five months; for Stability (%) mean ± SD, T0 samples / Stability (%) mean ± SD, T4 samples: patient plasma n = 3, stored at −80 °C, 5 months vs Time 0
Protocol: as §1

[5] = design: method as in ref 18 = [18]; 18. U.S. Food and Drug Administration Center for Drug Evaluation and Research: Nda/Bla, Multi-Disciplinary Review and Evaluation, Lumacaftor/Ivacaftor Available online: https://www.accessdata.fda.gov/; conditions: Trikafta drug registration documents; cited from earlier work
[6] = design: method as in PMID 38494378; conditions: cited from earlier work
[7] = design: method as in PMID 36015300; conditions: cited from earlier work
[8] = design: method as in PMID 40245791; conditions: H-QC, after sample preparation; cited from earlier work
[9] = design: method as in ref 22 = [22]; 22. Kaftrio®, Summary of Product Characteristics (SmPC), European Medicine Agency (EMA) Available online: https://www.ema.europa.eu/en/medicines/human/EPAR/kaftrio (accessed on 3 March 2024); conditions: cited from earlier work
[10] = design: method as in PMID 36831163; conditions: cited from earlier work
[11] = tested on: CFTR; design: method as in PMID 36015300; conditions: cited from earlier work
[12] = n = 25 pediatric CF patients, read-out: Plasma concentration T4 (Cmax), 25th Percentile
[13] = n = 25 pediatric CF patients, read-out: Plasma concentration T4 (Cmax), 75th Percentile
[14] = n = 25 pediatric CF patients, read-out: Plasma concentration T4 (Cmax), Median
[15] = H-QC (18 µg/mL), 24 H vs Time 0
[16] = H-QC (18 µg/mL), Day 9 vs Time 0
[17] = L-QC (0.3 µg/mL), 24 H vs Time 0
[18] = L-QC (0.3 µg/mL), Day 9 vs Time 0
[19] = M-QC (8 µg/mL), Day 9 vs Time 0
[20] = Kaftrio drug registration documents

SMILES | Cmax at 4 h [1, 12] | Cmax at 4 h [1, 13] | Cmax at 4 h [1, 14] | Plasma concentration T0 (Ctrough), 25th Percentile ([1]; n = 25 pediatric CF patients) | Plasma concentration T0 (Ctrough), 75th Percentile ([1]; n = 25 pediatric CF patients) | Plasma concentration T0 (Ctrough), Median ([1]; n = 25 pediatric CF patients) | Stability (%) [2, 15] | Stability (%) [2, 16] | Stability (%) [2, 17] | Stability (%) [2, 18] | Stability (%) ([2]; M-QC (8 µg/mL), 24 H vs Time 0) | Stability (%) [2, 19] | Stability after one cycle of freezing and thawing [3] | Stability, % of the first measurement [4] | Stability (%) mean ± SD, T0 samples [4] | Stability (%) mean ± SD, T4 samples [4] | Ctrough (Cmin), mean ± SD [5] | Minimum concentration (Cmin), median (range) [6] | Tmax [7] | Remaining % after ten days in the autosampler [8] | further results
Cc1nn(C)cc1S(=O)(=O)NC(=O)c1ccc(-n2ccc(OCC(C)(C)C(F)(F)F)n2)nc1N1C[C@@H](C)CC1(C)C [ELX, Elexacaftor] | 13300 ng/mL | 24100 ng/mL | 17800 ng/mL | 5820 ng/mL | 12940 ng/mL | 8730 ng/mL | 98.74% | 114.46% | 101.72% | 113.79% | 99.76% | 113.09% | 100–107% | higher than 85% | 90.55 ± 2.42% | 89.18 ± 18.05% | 4050 ± 2070 ng/mL | 2800 ng/mL | 6 h | 99.8% | –
CC(C)(C)c1cc(C(C)(C)C)c(NC(=O)c2c[nH]c3ccccc3c2=O)cc1O [IVA, Ivacaftor] | 1070 ng/mL | 2430 ng/mL | 1490 ng/mL | 370 ng/mL | 1340 ng/mL | 790 ng/mL | 101.29% | 73.54% | 101.51% | 75.75% | 99.88% | 78.27% | 100–107% | higher than 85% | 86.96 ± 3.98% | 85.48 ± 19.83% | 630 ± 260 ng/mL | – | – | 88% | AUC(0-t) ([1]; n = 25 pediatric CF patients, C12h estimated as C4h*e^−β(t12−t4), read-out: Measured AUC0–12h, 25th Percentile): 7930 ng·h/mL; AUC(0-t) ([1]; n = 25 pediatric CF patients, C12h estimated as C4h*e^−β(t12−t4), read-out: Measured AUC0–12h, 75th Percentile): 19400 ng·h/mL; AUC(0-t) ([1]; n = 25 pediatric CF patients, C12h estimated as C4h*e^−β(t12−t4), read-out: Measured AUC0–12h, Median): 11400 ng·h/mL; Back-calculated Ctrough (T0), median (IQR) ([1]; from regression equation of AUC0–24h versus Ctrough (y = 27.6 * x + 4.30)): 0.80 (0.42–1.32) µg/mL; Measured AUC0–12h, 25th Percentile ([1]; n = 25 pediatric CF patients, C12h estimated as C4h*e^−β(t12−t4)): 5330 ng·h/mL; 9-day autosampler stability ([2]; 9 days from day 0): 76%; 9-day autosampler stability ([2]; 9 days from day 0, listed as ivacaftor): 73.54–78.27%; AUC0–12h, mean ± SD [9, 20]: 11700 ± 4010 ng·h/mL; Cmax, mean ± SD [9, 20]: 1240 ± 340 ng/mL; Ctrough, mean ± SD ([10]; adult patients): 900 ± 370 ng/mL; Ctrough, mean ± SD ([10]; children): 710 ± 200 ng/mL; Back-calculated Ctrough, mean ± 1.96 SD [6]: 700 ng/mL
CC(C)(C)c1cc(C(C)(C)CO)c(O)cc1NC(=O)c1c[nH]c2ccccc2c1=O [M1-IVA, hydroxymethyl ivacaftor] | – | – | – | – | – | – | – | – | – | – | – | – | – | – | – | – | – | – | – | – | Potency of metabolite relative to parent compound [11]: 1/6
CC(C)(CO)c1cc2cc(NC(=O)C3(c4ccc5c(c4)OC(F)(F)O5)CC3)c(F)cc2n1C[C@@H](O)CO [TEZ, Tezacaftor] | 3750 ng/mL | 6320 ng/mL | 4520 ng/mL | 720 ng/mL | 1870 ng/mL | 1370 ng/mL | 101.39% | 105.83% | 96.55% | 103.79% | 100.12% | 105.32% | 100–107% | higher than 85% | 89.35 ± 4.87% | 85.51 ± 11.87% | 2100 ± 820 ng/mL | 1300 ng/mL | 3 h | 99.8% | Effect of simultaneous ingestion of fatty food on exposure ([9]; Kaftrio SmPC): not affected
